Results on eight compounds are retold here after PMC11816975, “Bioactive Peptides from Milk Proteins with Antioxidant, Anti-Inflammatory, and Antihypertensive Activities” (Foods, 2025).

Series [1] can be described thus: FRAP (ferric reducing antioxidant power) assay. The procedure:
The antioxidant power of a given compound is not limited to its radical-scavenging activity. In fact, the ferric reducing antioxidant power (FRAP) assay, is a well-established test to measure a compound’s ability to act as a reductant in a colorimetric redox reaction, where ferric (Fe^3+) ions are reduced to the ferrous (Fe^2+) state in the acidic medium.
The ferric-reducing antioxidant power (FRAP) was determined using a FRAP kit (Sigma-Aldrich) with minor modifications to the manufacturer’s instructions. Briefly, in a 96-well plate, 5 µL of peptides’ aqueous solutions at different concentrations (50–0.05 µg/mL) was added per well. Then, 95 µL of the reaction cocktail (FRAP assay buffer, FeCl3 solution, and FRAP probe) was added to each well. The absorbance was measured at 594 nm in kinetic mode (Multiskan SkyHigh, Thermo Fisher Scientific) for 60 min, at 37 °C. A ferrous standard curve was plotted with Ferrous ammonium sulfate at 0, 4, 8, 12, 16, and 20 nmol/well, and the absorbances of each sample were compared to the standard curve. Quercetin (100–0.1 µg/mL in ethanol) was used as a positive control. All measurements were performed in three independent experiments. Data are shown as mean ± SD.

Series [2] can be described thus: DPPH• radical scavenging assay. The conditions noted are these: relative concentration to reduce 50% of initial DPPH•; mean ± SD, n = 3. The procedure: The free radical-scavenger activity was determined by the DPPH^• assay, according to Oliveira et al.. Briefly, in a 96 well-plate, 19.4 µL of aqueous solutions of the peptides at different concentrations (100–0.1 µg/mL) was added per well. Then, 175 µL of an ethanolic solution of 2,2-diphenyl-1-picrylhydrazyl radical (DPPH^•, Merck) was added to the wells ([…]—90 µM for final concentration in the experiment). The absorbance was read at 515 nm (Multiskan SkyHigh multiplate reader, Thermo Fisher Scientific) in kinetic mode for 60 min and at room temperature. The percentage of remaining DPPH^• was plotted against the peptides’ concentrations and the amount of test compounds necessary to decrease by 50% the initial concentration of DPPH (RIC50) was calculated (GraphPad Prism 9.4.0, GraphPad Software). Quercetin (100–0.1 µg/mL in ethanol) was used as a positive control.
The DPPH^• radical scavenging activity determines the ability of an antiradical compound to neutralize DPPH^• radical to its reduced form (DPPH-H) and is usually expressed as the concentration of the compound required to reduce the DPPH^• radical by 50% (IC₅₀). […]
On the technique in general: The DPPH test is a chemical assay of radical scavenging.

A short description of a further series: in vitro. Format: cell-based, murine. The conditions noted are these: for IC50 at 24 h: mouse. The procedure:
RAW 264.7 (ATCC TIB-71) murine macrophage-like cells were cultured in high-glucose Dulbecco’s modified Eagle’s medium (DMEM, Sigma-Aldrich) supplemented with 10% fetal bovine serum (FBS, Corning) and 1% penicillin/streptomycin (Corning). Cells were grown under standard culture conditions in a 5% CO2 incubator at 37 °C (MCO-170AC incubator; PHC Corporation, Tokyo, Japan), and were sub-cultured every two or three days when it was noticed that the cells had reached around 80% confluence. The assays were performed in cell passages from passages 9 to 21 to avoid phenotypic and genetic instability. Unless otherwise stated, all treatments were carried out with DMEM supplemented with 1% penicillin/streptomycin only (serum-free conditions). The cytotoxicity of the peptides towards RAW 264.7 cells was evaluated using the colorimetric 3-(4,5-dimethylthiazol-2-yl)-2,5-diphenyl tetrazolium bromide (MTT) assay. The assay was performed according to Mosmann, with a few modifications. Briefly, cells were seeded in a 96-well plate at a density of 2.5 × 10^3 cells per well and incubated for 24 h (5% CO2, 37 °C). After the incubation period, the medium was removed and replaced with different concentrations of the peptides’ aqueous solutions diluted in fresh FBS-free DMEM to the final concentrations of 1–0.005 mg/mL in each well. Following another 24 h incubation period, 10 µL of a 5 mg/mL stock solution of 3-(4,5-Dimethylthiazol-2-yl)-2,5-diphenyltetrazolium bromide (MTT; Alfa Aesar) was added to each well, and the plate was incubated for 3 h (5% CO2, 37 °C). Dimethyl sulfoxide (DMSO, Thermo Fisher Scientific) was used to dissolve the formazan crystals formed by the intracellular reduction of MTT. The absorbance was measured at a dual wavelength of 570/690 nm using a Multiskan SkyHigh microplate reader (Thermo Fisher Scientific). The percentage of viable cells was calculated and the concentration of each peptide able to inhibit 50% of cell viability (IC50) was determined. The experiments were carried out in three independent assays, and the results are shown as mean ± standard deviation (SD).

The subject of series [3] is O2•− production in LPS-stimulated RAW 264.7 cells. Kind of series: Intracellular superoxide production (NBT assay) in LPS-stimulated macrophages. The conditions noted are these: at 10 µg/mL. Format: cell-based, murine. The procedure: Considering the link between oxidative stress and inflammation, both the antioxidant and the anti-inflammatory potential of the selected peptides was determined in cellulo using macrophage-like cells (RAW 264.7 cell line) stimulated with lypopolysaccharides (LPSs) from Escherichia coli. […] In other words, RAW 264.7 cells are activated by foreign stimuli like, e.g., exposure to LPSs. This activation is initiated by the binding of LPSs to cell membrane receptors, which triggers signaling pathways that will result in the generation of proinflammatory mediators (e.g., nitric oxide) and cytokines such as interleukin (IL)-6, IL-8, tumor necrosis factor-alpha (TNF)-α [41, 42]. Since proinflammatory mediators are held in several metabolic pathways, including the production of reactive oxygen species (ROS), e.g., the radical-anion superoxide (O2^•−), LPS exposure also leads to oxidative stress. […]
The potential inhibitory effect of the peptides on superoxide radical (O2^−) by RAW 264.7 cells activated by LPS (1 µg/mL) was evaluated according to Mitra et al. with some modifications. […] The absorbance was measured in a microplate reader at a dual wavelength of 620/700 nm. […] The experiments were performed in three independent assays and the results were expressed as a percentage of O2^- production. […]

Series [4] relates to NO production in LPS-stimulated RAW 264.7 cells. Put plainly: Griess assay (nitric oxide production) in LPS-stimulated macrophages. Format: cell-based, murine. The conditions noted are these: at 10 µg/mL. From the text:
The Griess assay is a classical indirect method to measure the production of nitric oxide through the quantification of nitrite anions. As previously mentioned, NO is an inflammatory biomarker that can be produced when LPS-activated macrophages produce proinflammatory mediators and cytokines, which in turn elicit the production of reactive species like ROS and the expression/activity of relevant enzymes, including the nitric oxide synthase (NOS).
The Nitrite Assay Kit (Griess Reagent, Sigma-Aldrich) was used to determine the influence of peptide treatments on nitric oxide production by RAW 264.7 cells activated by LPS (1 µg/mL). To this end, peptide solutions at different concentrations (50–3.12 µg/mL—serial dilution) in an FBS-free medium were used. Briefly, 7 × 10^4 RAW 264.7 cells per well were seeded in a 96-well plate and incubated for 24 h (5% CO2, 37 °C). On the next day, the medium was removed and replaced with different concentrations of the peptides. After another 24 h incubation period (5% CO2, 37 °C), 50 µL of culture supernatant was transferred to a 96-well plate. […] The absorbance was measured at 540 nm using a microplate reader (Multiskan SkyHigh, Thermo Scientific) A nitrite standard curve was plotted with nitrite standards at 0, 2, 4, 8, and 10 nmol/well, and the absorbances of each sample were compared to the standard curve. […]

A further series addresses ACE-1 enzyme (Homo sapiens, UniProt P12821). Kind of series: ACE-1 inhibition assay (colorimetric kit).
A further series relates to ACE-1. The note with it: cited from earlier work.
Series [5] concerns spontaneously hypertensive rats. The arrangement: method as in PMID 16830788. The note with it: cited from earlier work.

Usually IC50 stands for the concentration that inhibits the measured activity by half. A high value points to weaker potency.

≈ marks a conversion by molar mass, not a printed value. Where no end group is shown, it is not given here.

Chain of ACE-1 enzyme (P12821 30-1306): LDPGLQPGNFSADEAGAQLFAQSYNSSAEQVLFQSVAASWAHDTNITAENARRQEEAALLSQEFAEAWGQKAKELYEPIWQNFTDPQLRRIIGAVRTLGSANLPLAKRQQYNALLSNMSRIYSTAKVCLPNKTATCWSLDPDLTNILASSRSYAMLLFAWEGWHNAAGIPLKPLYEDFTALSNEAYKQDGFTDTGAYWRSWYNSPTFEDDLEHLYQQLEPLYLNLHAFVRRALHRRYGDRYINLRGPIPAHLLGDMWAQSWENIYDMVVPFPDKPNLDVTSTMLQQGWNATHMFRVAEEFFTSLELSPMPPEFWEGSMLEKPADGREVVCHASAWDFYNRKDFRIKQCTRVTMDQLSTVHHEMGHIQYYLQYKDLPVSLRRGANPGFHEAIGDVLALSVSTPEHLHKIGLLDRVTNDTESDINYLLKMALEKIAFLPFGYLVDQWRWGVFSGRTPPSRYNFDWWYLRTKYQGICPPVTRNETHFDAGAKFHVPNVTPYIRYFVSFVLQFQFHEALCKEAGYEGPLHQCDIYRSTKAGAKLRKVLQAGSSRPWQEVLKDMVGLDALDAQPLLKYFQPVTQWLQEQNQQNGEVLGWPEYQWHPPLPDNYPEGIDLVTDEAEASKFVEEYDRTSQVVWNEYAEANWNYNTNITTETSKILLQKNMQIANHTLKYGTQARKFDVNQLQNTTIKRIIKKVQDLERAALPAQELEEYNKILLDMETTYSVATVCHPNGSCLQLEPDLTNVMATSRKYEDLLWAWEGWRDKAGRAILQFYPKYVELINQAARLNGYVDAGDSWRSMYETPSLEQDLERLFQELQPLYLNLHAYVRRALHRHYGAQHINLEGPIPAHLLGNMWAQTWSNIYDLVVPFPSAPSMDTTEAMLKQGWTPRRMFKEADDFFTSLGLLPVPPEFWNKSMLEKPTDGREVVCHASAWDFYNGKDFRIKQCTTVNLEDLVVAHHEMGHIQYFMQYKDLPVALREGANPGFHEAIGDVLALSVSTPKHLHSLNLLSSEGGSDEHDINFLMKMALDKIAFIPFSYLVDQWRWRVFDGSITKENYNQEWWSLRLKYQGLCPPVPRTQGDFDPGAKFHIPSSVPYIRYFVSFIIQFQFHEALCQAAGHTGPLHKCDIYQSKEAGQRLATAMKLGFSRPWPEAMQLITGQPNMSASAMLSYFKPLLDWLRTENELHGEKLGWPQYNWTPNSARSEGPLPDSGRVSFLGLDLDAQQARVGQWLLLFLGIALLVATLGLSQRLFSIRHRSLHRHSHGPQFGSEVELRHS
Method for ACE-1 enzyme: Therefore, the ability of the LF-derived peptides to inhibit ACE-1 was evaluated.
The activity of the ACE-1 enzyme was measured using a colorimetric ACE-1 Inhibitor Screening Kit (Abcam) with minor modifications to the manufacturer’s instructions. Briefly, in a 96-well plate, 12.5 µL of peptide’s aqueous solutions at different concentrations (100–0.1 µg/mL) were added per well. Then, 20 µL of diluted ACE-1 enzyme solution was added to each well. The total volume of each well was adjusted to 100 µL and the plate was incubated at 37 °C for 15 min. After the incubation period, 25 µL of the reaction mixture (substrate mixture and ACE-1 assay buffer) were added to the samples, and the absorbance was read in kinetic mode at 345 nm for 60 min at 37 °C (Multiskan SkyHigh, Thermo Scientific). Captopril (22 ng/mL) was used as the positive control. The reaction inhibition percentage was calculated and the IC50 was determined (GraphPad Prism 9.4.0, GraphPad Software). The experiments were carried out in three independent assays and the results are expressed as mean ± SD.

`O=c1c(O)c(-c2ccc(O)c(O)c2)oc2cc(O)cc(O)c12` [Quercetin]: the “FRAP (mM Ferrous Equivalents)” value in series [1] (0.05 µg/mL) is 0.85 ± 0.25 mM Ferrous Equivalents; in series [1] (0.5 µg/mL), 1.40 ± 0.23 mM Ferrous Equivalents; in series [1] (5 µg/mL) it was 8.02 ± 0.57 mM Ferrous Equivalents; in series [1] (50 µg/mL), 16.09 ± 0.87 mM Ferrous Equivalents. For the same compound, in series [2], the “DPPH Radical Scavenging Activity (RIC50 mol/mol DPPH)” value was found to be 0.09 ± 0.02 mol/mol DPPH. In addition, the midpoint of inhibition in “in vitro”, the IC50 at 24 h, lay at 65 ± 2 µg/mL (≈ 215 µM). Further, the “reduction of O2•− production compared to the control (LPS +)” value in series [3] was “about 25%”. For the same compound, the “NO levels in LPS-activated cells” value in series [4] is “significantly reduce NO levels”.

Consider `CSCC[C@H](NC(=O)[C@H](CCCNC(=N)N)NC(=O)[C@H](Cc1c[nH]c2ccccc12)NC(=O)[C@H](CCC(N)=O)NC(=O)[C@H](Cc1c[nH]c2ccccc12)NC(=O)[C@H](CCCNC(=N)N)NC(=O)[C@H](CCCNC(=N)N)NC(=O)[C@H](CS)NC(=O)[C@H](CCCCN)NC(=O)[C@@H](N)Cc1ccccc1)C(=O)N[C@@H](CCCCN)C(=O)N[C@@H](CCCCN)C(=O)N[C@@H](CC(C)C)C(=O)NCC(=O)N[C@@H](C)C(N)=O` [bLF-17-31, FKCRRWQWRMKKLGA-NH2], for which the half-maximal inhibitory concentration (IC50) at ACE-1 enzyme is 31.6 µM; in the series “in vitro”, 135 ± 6 µg/mL (≈ 67.7 µM).

For “AKCAKFQRNMKKVRG-NH2 [aLF-17-31, AKCAKFQRNMKKVRG-NH2]”, at ACE-1 enzyme, the IC50 was 31.2 µM.

Regarding “APRKNVRWCTI-NH2 [bLF-1-11, APRKNVRWCTI-NH2]”, the half-inhibitory concentration (IC50) at 24 h in “in vitro” stood at 290 ± 5 µg/mL.

The compound “GRRRRSVQWCA-NH2 [rhLF-1-11, GRRRRSVQWCA-NH2]” gave an IC50 against ACE-1 enzyme of 57.5 µM. In the series “in vitro”, this compound came in with an IC50 at 24 h of 355 ± 12 µg/mL.

With LRPVAA, the “ACE-1 inhibition in vitro” value in the series with ACE-1 is “effective in inhibiting ACE-1 in vitro”. For the same compound, the blood pressure entry in series [5] is on record as “reducing blood pressure”.

Take “WKLLSKAQEKFGKNKSR-NH2 [bLF-268-284, WKLLSKAQEKFGKNKSR-NH2]”: the IC50 at ACE-1 enzyme was over 48.8 µM.

As to “WNLLRQAQEKFGKDKSP-NH2 [nhLF-268-284, WNLLRQAQEKFGKDKSP-NH2]”, on ACE-1 enzyme, the IC50 is 25.6 µM.
